Data: patent US9303069B2, “Peptides for treating cancer” (University of Mississippi Medical Center, priority 2014, dated 2016)
Read-outs that look alike come from different tables or passages of the source.

Legend:
[1] = tested on: BRCA1-IRIS; assay: BRCA1-IRIS expression in ovarian cells (Western analysis); assay type: cell-based, human; conditions: 10, 20 or 30 μM of cisplatin for 24 hours
Excerpt: At these low concentrations of cisplatin BRCA1-IRIS expression was induced in HOSE cells and remained high in HOSE/IRIS cells (FIG. 17). […] Cell lines expressing the lowest levels of BRCA1-IRIS (i.e.

[2] = tested on: SKOV3 tumors; assay: In vivo efficacy on established SKOV3 tumors; parameters: species or system mice; conditions: day 16; cisplatin 5 mg/kg i.p., IRIS peptide 10 mg/kg i.t., every third day, four times
Description: Further, to determine whether IRIS peptide could have any efficacy in vivo and/or whether it sensitizes ovarian tumors to low, clinically relevant concentrations of cisplatin, four sets of nude mice (n=6 each) were subcutaneously injected with SKOV3 cells. Ten days later, when tumors were ˜250 mm^3 in volume, one group was treated with controls (i.e. DMSO delivered i.p. and scrambled peptide delivered directly into the tumors, i.t.), a second group was treated with cisplatin (5 mg/kg, delivered i.p.), a third group was treated with IRIS peptide (10 mg/kg, injected i.t.), and a fourth group was treated with both. Treatments were delivered every third day for a total of four times. For the next 16 days, tumors were measured daily with a caliper. Mice were then sacrificed, and their tumors or their remnants were taken.
Efficacy of BRCA1-IRIS inhibitory peptide, in vivo. Six to eight week old female athymic SCID mice were injected subcutaneously with 2.5×10^6 SKOV3 cells in the flank region. Their respective tumor growth was measured with a caliper. When the tumor volume reached 250 mm^3, mice were randomly grouped into four groups. One group (control) was treated with scrambled peptide (10 mg/kg) and DMSO. A second was treated with BRCA1-IRIS inhibitory peptide (10 mg/kg, body weight). […] Change in tumor volume was measured to monitor the efficacy of the treatment. […]

[3] = tested on: BRCA1-IRIS, TrkB, ErbB2, AKT, p-AKT, p-FOXO, Cyclin D1, Bcl-2 and survivin; assay: Expression of growth and survival proteins in HOSE and HOSE/IRIS cells (Western); assay type: cell-based, human; conditions: IRIS peptide 5 μM, cisplatin 10 μM, combination 2.5 μM IRIS peptide + 5 μM cisplatin
Excerpt: HOSE cells overexpressing IRIS show a higher degree of resistance to cisplatin than HOSE cells (compare blue to black line in FIG. 30).

[4] = tested on: BRCA1-IRIS and survivin; assay: IHC of SKOV3 tumors for BRCA1-IRIS and survivin; assay type: in vivo, mice; conditions: SKOV3 tumors after treatment
Excerpt: Isolated tumors were mounted, sectioned and IHC stained for BRCA1-IRIS and survivin. […] It is possible that SKOV3 contain a heterogeneous population of cells that differ in their BRCA1-IRIS expression and thus that the remaining tumors are from those expressing no or low BRCA1-IRIS.
Immunohistochemistry (IHC). Ovarian tissue microarrays comprised of normal, cancer and metastatic tissues were purchased from US Biomax, Inc. Paraffin-embedded tissue sections were de-waxed in xylene and rehydrated in alcohol. Antigen-retrieval for FOXO3a and survivin was performed by heating the slides in citrate buffer (10 μM, pH 6.0) using microwave for 10 minutes. Slides were then cooled to room temperature (RT) and washed with water followed by PBS for 15 minutes each. Antigen-retrieval for BRCA1-IRIS was performed by incubating the slides in pepsin (10 μM) for 20 minutes at 37° C. Endogenous peroxidase activity was suppressed by treating the slides with 3% hydrogen peroxide for 10 minutes. After washing steps slides were incubated for 1 hour at room temperature with antibodies to human FOXO3a (Cell Signaling Technology, USA 1:400) and survivin (Cell Signaling Technology, USA 1:400). For BRCA1-IRIS staining, slides were incubated overnight at 4° C. with monoclonal BRCA1-IRIS antibody at a 1:75 dilution. […]

[5] = tested on: SKOV3 cells; assay type: cell-based, human; conditions: then cisplatin 24 hours, read-out: IC50 of cisplatin (survival)
Description: Thus, a peptide (hereafter IRIS peptide) composed of a cell/nucleus penetrating signal (FIG. 26) fused to BRCA1-IRIS intron 11 (FIG. 26) was synthesized. Equal numbers of HOSE, HOSE/IRIS, SKOV3, OVCAR3, OVCAR420 and OV-90 cells were grown in the presence of increasing concentrations of IRIS peptide for 48 hours.
To investigate the contribution of ErbB2 and TrkB to BRCA1-IRIS-induced cisplatin resistance, equal numbers of SKOV3 cells were either depleted from BRCA1-IRIS, ErbB2 or TrkB using specific siRNAs for 48 hours before they were (i) exposed to increasing concentrations of cisplatin for another 24 hours or (ii) exposed to IRIS peptide, ErbB2 inhibitor (CP-724714), TrkB inhibitor (K252a) or both for 24 hours, before they were exposed to increasing concentrations of cisplatin for another 24 hours.
Cell viability measurement. Cell viability under different experimental conditions was determined using the MTS assay […]. Briefly, SKOV3, OVACAR3, HOSE and HOSE/IRIS cells (2.5×10^4 cells per well) were seeded in 96 well plates and incubated overnight at 37° C. in 10% humidified CO2 atmosphere in varying concentrations of IRIS peptide, or inhibitors of ErbB2 (CP-724714), EGFR (Erlotinib), TrkB (K252a), JNK (SP600125), p38 (SB203580), ERK (PD98059) and PI3′K/AKT (LY294002) inhibitors for 24 hours at 37° C. Cell Titer 96® Aqueous (Promega, Madison, Wis., USA) was used to measure viability following manufactures instructions. Cell viability (%) was expressed as a ratio to control cells×100. Growth inhibition was also determined by manually counting cells in five different microscopic fields. Change in cell numbers (fold) was expressed as a ratio to control cells×100. All experiments were done in at least triplicates, three different times. * is p≦0.05, ** is p≦0.001 and *** is p≦0.0001.
Transfections of siRNA. siRNAs for human ErbB2 and TrkB were purchased from Ambion and Santa Cruz Biotechnology, USA. Custom synthesized siRNA against BRCA1 IRIS was used. siRNA against luciferase gene was used as the negative control. Sub-confluent cells were transfected in 6- or 96-well plates with ErbB2 (100 nM), TrkB (100 nM), BRCA1 IRIS (200 nM) or control siRNA using Oligofectamine™ reagent (GibcoBRL Inc, USA) following the instructions of the manufacturer. Protein expression was tested by Western blot after 72 hours of siRNA transfection. Cell viability was evaluated by MTS or by manual counting after 72 hours of siRNA exposure alone or in combination with cisplatin exposure (for an additional 24 hours).

Structure (SMILES): N.N.[Cl][Pt][Cl] [cisplatin]
- BRCA1-IRIS expression in HOSE cells [1]: induced
- reduction in tumor size [2]: ~40%
- expression of BRCA1-IRIS, TrkB, ErbB2, AKT, p-AKT, p-FOXO, Cyclin D1, Bcl-2 and survivin [3]: increased expression
- BRCA1-IRIS and survivin staining of remaining tumor [4]: increased IRIS and survivin expression
- IC50 ([5]; SKOV3, BRCA1-IRIS silencing (siRNA) 48 hours): ~2.5 µM
- IC50 ([5]; SKOV3, ErbB2 inhibitor (CP-724714) 24 hours): ~30 µM
- IC50 ([5]; SKOV3, IRIS peptide 24 hours): ~7.5 µM
- IC50 ([5]; SKOV3, TrkB inhibitor (K252a) 24 hours): ~50 µM
- IC50 ([5]; SKOV3, siErbB2 transfected 48 hours): ~7.5 µM
- IC50 ([5]; SKOV3, siLuc transfected 48 hours): > 50 µM
- IC50 ([5]; SKOV3, siTrkB transfected 48 hours): ~20 µM
- IC50 ([5]; SKOV3, vehicle treated 24 hours): > 50 µM
